In patent publication US20250134861A1, “COMPOSITIONS COMPRISING 5-METHOXY-N,N-DIMETHYLTRYPTAMINE (5-MEO-DMT) FOR USE IN TREATING MENTAL DISORDERS” (GH RESEARCH IRELAND LIMITED, priority 2019, published 2025):

Experiments:
[1] = system: patients with alcohol dependence; conditions: therapy with LSD; cited from earlier work
[2] = system: patients with anxiety associated with life-threatening diseases; conditions: 12 patients; two months follow-up; cited from earlier work
[3] = system: patients in a treatment program of alcoholism; conditions: LSD together with psychotherapy vs psychotherapy alone; cited from earlier work
[4] = oral; cited from earlier work
[5] = system: patients with personality trait disturbance or anxiety; conditions: LSD as an aid to psychotherapy; cited from earlier work
[6] = system: patients suffering from terminal state of cancer; conditions: LSD treatment; cited from earlier work
[7] = Clinical trial of inhaled 5-MeO-DMT in healthy volunteers: 5-MeO-DMT and bufotenine plasma levels; assay type: in vivo, human; conditions: all other samples (1 hour and 3 hours) after inhaled 5-MeO-DMT
Description: The trial consisted of two parts: Part A, where single doses of 5-MeO-DMT dosage amounts of 2 mg, 6 mg, 12 mg and 18 mg were administered; and Part B, where an initial 5-MeO-DMT dosage amount of 6 mg was administered, and then, unless the participant had already experienced a peak psychedelic experience based on the PPEQ or the supervising physician had decided that further dose increases were inappropriate based on observed side effects, further subsequent dosage amounts of 12 mg and 18 mg were administered with about 3 hours in between each administration. […] Pharmacokinetic analysis of 5-MeO-DMT and bufotenine plasma levels was performed at 1 hour and 3 hours after drug administration in Part A, and at 3 hours after drug administration in Part B.

[8] = target: 5-HT2A receptor (Homo sapiens, UniProt P28223); conditions: compared with 5-MeO-DMT; cited from earlier work
[9] = system: patients with treatment-resistant depression; conditions: in vivo; cited from earlier work

Sequence of 5-HT2A receptor (P28223 whole entry): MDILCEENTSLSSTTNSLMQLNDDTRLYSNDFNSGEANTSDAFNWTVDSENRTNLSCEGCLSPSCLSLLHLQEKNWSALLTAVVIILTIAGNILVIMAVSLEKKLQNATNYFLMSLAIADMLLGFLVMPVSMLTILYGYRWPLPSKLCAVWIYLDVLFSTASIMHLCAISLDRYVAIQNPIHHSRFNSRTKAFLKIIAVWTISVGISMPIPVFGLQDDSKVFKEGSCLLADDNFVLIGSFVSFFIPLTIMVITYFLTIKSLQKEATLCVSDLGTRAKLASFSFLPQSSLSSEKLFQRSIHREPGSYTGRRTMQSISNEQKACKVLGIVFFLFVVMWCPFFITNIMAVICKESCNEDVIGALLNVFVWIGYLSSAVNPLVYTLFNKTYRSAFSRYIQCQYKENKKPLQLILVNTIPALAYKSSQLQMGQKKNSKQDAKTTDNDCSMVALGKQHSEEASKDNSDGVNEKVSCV

SMILES: CCN(CC)C(=O)[C@@H]1C=C2c3cccc4[nH]cc(c34)C[C@H]2N(C)C1 [LSD, lysergic acid diethylamide]
- Patients changed (stop drinking or are much improved) [1]: 50%
- Anxiety measures [2]: significant effects
- Rates of abstinence or improvement [3]: higher rates of abstinence or improvement
- Duration of acute psychedelic effects [4]: several hours
- Patients with outcome of "much improved" or "improved" [5]: over 90%
- Fraction of patients who improved in varying degrees [6]: about two-thirds

SMILES: CN(C)CCc1c[nH]c2ccc(O)cc12 [bufotenine]
- Bufotenine (5-MeO-DMT metabolite) plasma levels [7]: undetectable
- Affinity for the 5-HT2A receptor [8]: much higher affinity than 5-MeO-DMT itself

SMILES: CN(C)CCc1c[nH]c2cccc(OP(=O)(O)O)c12 [psilocybin]
- Frequently reported side effects [9]: anxiety, headache and nausea
